Measured values taken from US5869500A, “Pyridone compounds useful in treating Alzheimer's disease” (Hoffmann-La Roche Inc., priority 1996, dated 1999).

System: Aβ production in HEK cells over-expressing mutated β-APP (SFAD)
Test: Aβ production inhibition, sandwich-ELISA in HEK cells, over-expressed mutated β-APP (SE-SFAD)
Type: cell-based, human
Details: Homo sapiens, HEK293, HEK cells; for IC50: based on the respective plateau of maximum inhibition; for Emax: maximum inhibition plateau, read-out: SE-SFAD max. inhibition %
Method: The effect of test substances on the inhibition of Aβ-amyloid production can be measured in the supernatant of cell cultures of β-APP expressed cells using ELISA tests or other quantitative determination methods for β-APP degradation products. Typically, 8×10^5 cells (e.g. HEK cells, which express recombinant human β-APP variants) are plated out in each well of a culture dish having 24 wells in growth media such as e.g. OPTIMEM (Gibco) and the test compound is then added. After an incubation period of 24 to 48 hours at 37° C. in a 10% CO2 atmosphere the supernatant is removed from the cell cultures and the β-APP degradation products (e.g. Aβ or β-[…]) are determined with the aid of ELISA (or sandwich ELISA) analysis or by means of quantitative immunoprecipitation (after metabolic radiolabelling of the cell proteins). Typically, 300 μl of the cell supernatant are tested according to the state of the art for ELISA tests in culture dishes having 96 wells. In the case of sandwich ELISA for Aβ, the binding antibody can be directed against the first 16 amino acids of Aβ-peptide (e.g. 6E10 Senetek, Maryland Heights, Mo.) and the detection antibody can be directed against amino acids 17-40 or 17-42 of Aβ and carries a detection system such as e.g. peroxidase. A simple ELISA test with an antibody, e.g. 22C11 (Boehringer Mannheim), can be used as the test for […]; the second antibody can be an anti-(mouse) Ig having a detection system, such as e.g. peroxidase. The peroxidase reaction can be carried out e.g. using a TMB substrate (BioRAD) and the measurements can be carried out at 650 nm using an ELISA reading apparatus. […] SE-SFAD signifies the Aβ production inhibition measured using sandwich-ELISA in HEK cells, SFAD signifies over-expressed mutated β-APP, and SE-WT signifies the Aβ production inhibition measured using sandwich-ELISA in HEK cells which over-express Wild type β-APP. The IC50 values are based on the respective plateau of maximum inhibition.

Row | SMILES | IC50 [nM] | Emax [%]
1 | COCCN(C(=O)c1cc(-c2ccc(OCc3ccccc3)cc2)c(=O)n2ccc3cc(C(=O)N(C)C)sc3c12)c1ccccc1 [Compound 76, 8-(4-Benzyloxy-phenyl)-7-oxo-7H-thieno[2,3-a]quinolizine-2,10-dicarboxylicacid 2-dimethylamide 10-[(2-methoxy-ethyl)-phenyl-amide]] | 2800 | 40
2 | COCCN(C(=O)c1cc(-c2ccc(OCc3ccccc3)cc2)c(=O)n2ccc3cc(C(=O)O)sc3c12)c1ccccc1 [Compound 80, 8-(4-Benzyloxy-phenyl)-10-[(2-methoxy-ethyl)-phenyl-carbamoyl]-7-oxo-7H-thieno[2,3-a]quinolizine-2-carboxylic acid] | 1000 to 3000 | 30 to 70
3 | CCCN(CCOC)C(=O)c1cc(-c2ccc(OC)cc2)c(=O)n2ccc3ccsc3c12 [Compound 148, 8-(4-Methoxy-phenyl)-7-oxo-7H-thieno[2,3-a]quinolizine-10-carboxylic acid (2-methoxy-ethyl)-propyl-amide] | 5000 | 100
4 | COCCN(CC1CC1)C(=O)c1cc(-c2ccc(OCc3ccccc3)cc2)c(=O)n2ccc3ccsc3c12 [Compound 70, 8-(4-Benzyloxy-phenyl)-7-oxo-7H-thieno[2,3-a]quinolizine-10-carboxylic acid cyclopropylmethyl-(2-methoxy-ethyl)-amide] | < 1000 | 100
5 | COc1ccccc1-c1cc(C(=O)NCc2ccccc2)c2c3sccc3ccn2c1=O [Compound 135, 8-(2-Methoxy-phenyl)-7-oxo-7H-thieno[2,3-a]quinolizine-10-carboxylic acid benzyl-amide] | 3000 | 100
6 | COCCN(Cc1ccco1)C(=O)c1cc(-c2ccccc2OC)c(=O)n2ccc3ccsc3c12 [Compound 139, 8-(2-Methoxy-phenyl)-7-oxo-7H-thieno[2,3-a]quinolizine-10-carboxylic acid (furan-2-yl-methyl)-(2-methoxy-ethyl)-amide] | 3300 | 100
7 | CCN(CCOC)C(=O)c1cc(-c2ccc(C)cc2)c(=O)n2ccc3ccsc3c12 [Compound 149, 7--Oxo-8-p-tolyl-7H-thieno[2,3-a]quinolizine-10-carboxylic acid ethyl-(2-methoxy-ethyl)-amide] | 2400 | 100
8 | COCCN(C(=O)c1cc(-c2ccc(OCc3ccccc3)cc2)c(=O)n2ccc3ccsc3c12)C(C)C [Compound 69, 8-(4-Benzyloxy-phenyl)-7-oxo-7H-thieno[2,3-a]quinolizine-10-carboxylic acid isopropyl-(2-methoxy-ethyl)-amide] | 800 | 45
9 | O=C1CN(C(=O)c2cc(-c3ccccc3)c(=O)n3ccc4ccsc4c23)C1 [Compound 7, 10-(3-Oxo-azetidin-1-carbonyl)-8-phenyl-thieno[2,3-a]quinolizin-7-one] | 50000 | 100
10 | COCCN(C(=O)c1cc(-c2ccc(C(C)(C)C)cc2)c(=O)n2ccc3ccsc3c12)c1ccccc1 [Compound 111, 8-(4-tert-Butyl-phenyl)-7-oxo-7H-thieno[2,3-a]quinolizine-10-carboxylicacid (2-methoxy-ethyl)-phenyl-amide] | 2500 | 100
11 | CCN(CCOC)C(=O)c1cc(-c2ccc(C(C)(C)C)cc2)c(=O)n2ccc3ccsc3c12 [Compound 107, 8-(4-tert-Butyl-phenyl)-7-oxo-7H-thieno[2,3-a]quinolizine-10-carboxylicacid ethyl-(2-methoxy-ethyl)-amide] | 3000 | 20
12 | COCCN(Cc1ccccc1)C(=O)c1cc(-c2ccc(C(C)(C)C)cc2)c(=O)n2ccc3ccsc3c12 [Compound 113, 8-(4-tert-Butyl-phenyl)-7-oxo-7H-thieno[2,3-a]quinolizine-10-carboxylicacid benzyl-(2-methoxy-ethyl)-amide] | 3000 | 100
13 | CCCN(CCOC)C(=O)c1cc(-c2ccc(OCc3ccccc3)cc2)c(=O)n2ccc3c(ncn3C)c12 [Compound 105, 8-(4-Benzyloxy-phenyl)-3-methyl-7-oxo-3,7-dihydro-imidazo[4,5-a]-quinolizine-10-carboxylic acid (2-methoxy-ethyl)-propyl-amide] | 5000 | 50
14 | COC(=O)c1cc(-c2cccc(C(F)(F)F)c2)c(=O)n2ccccc12 [Compound 17, Methyl 4-oxo-3-(3-trifluoromethyl-phenyl)-4H-quinolizine-1-carboxylate] | 500 | 30
15 | COCCN(CCOC)C(=O)c1cc(-c2ccc(Oc3ccccc3)cc2)c(=O)n2ccc3ccsc3c12 [Compound 97, 7-Oxo-8-(4-phenoxy-phenyl)-7H-thieno[2,3-a]quinolizine-10-carboxylic acid bis-(2-methoxy-ethyl)-amide] | 2200 | 100
16 | COCCN(CC1CC1)C(=O)c1cc(-c2ccccc2OC)c(=O)n2ccc3ccsc3c12 [Compound 119, 8-(2-Methoxy-phenyl)-7-oxo-7H-thieno[2,3-a]quinolizine-10-carboxylic acid cyclopropylmethyl-(2-methoxy-ethyl)-amide] | 1600 | 60 to 80
17 | COCCN(Cc1ccccc1)C(=O)c1cc(-c2ccccc2OC)c(=O)n2ccc3ccsc3c12 [Compound 120, 8-(2-Methoxy-phenyl)-7-oxo-7H-thieno[2,3-a]quinolizine-10-carboxylic acid benzyl-(2-methoxy-ethyl)-amide] | 1800 | 100
18 | CCN(CCOC)C(=O)c1cc(-c2ccc(Oc3ccccc3)cc2)c(=O)n2ccc3ccsc3c12 [Compound 99, 7-Oxo-8-(4-phenoxy-phenyl)-7H-thieno[2,3-a]quinolizine-10-carboxylic acid ethyl-(2-methoxy-ethyl)-amide] | 2500 | 100
19 | COCCN(CCOC)C(=O)c1cc(-c2ccc(OCc3ccccc3)cc2)c(=O)n2ccc3c(ncn3C)c12 [Compound 103, 8-(4-Benzyloxy-phenyl)-3-methyl-7-oxo-3,7-dihydro-imidazo[4,5-a]-quinolizine-10-carboxylic acid bis-(2-methoxy-ethyl)-amide] | 5000 | 35 to 55
20 | Cn1ccnc1COC(=O)c1cc(-c2ccccc2)c(=O)n2ccc3ccsc3c12 [Compound 27, 1-Methyl-1H-imidazol-2-yl-methyl 7-oxo-8-phenyl-7H-thieno[2,3-a]-quinolizine-10-carboxylate methanesulphonate] | 50000 | 100
21 | CCOC(=O)c1cc(-c2ccc(C)cc2)c(=O)n2ccc3ccsc3c12 [Compound 151, Ethyl 7-oxo-8-p-tolyl-7H-thieno[2,3-a]quinolizine-10-carboxylate] | 800 | 100
22 | COC(=O)c1cc(-c2ccccc2)c(=O)n2ccc3ccsc3c12 [Compound 15, Methyl 7-oxo-8-phenyl-7H-thieno[2,3-a]quinolizine-10-carboxylate] | 3000 | 60
23 | COCCN(Cc1ccccc1)C(=O)c1cc(-c2ccc(OCc3ccccc3)cc2)c(=O)n2ccc3ccsc3c12 [Compound 71, 8-(4-Benzyloxy-phenyl)-7-oxo-7H-thieno[2,3-a]quinolizine-10-carboxylic acid benzyl-(2-methoxy-ethyl)-amide] | 570 | 100
24 | COCCN(Cc1cccs1)C(=O)c1cc(-c2ccccc2OC)c(=O)n2ccc3ccsc3c12 [Compound 140, 8-(2-Methoxy-phenyl)-7-oxo-7H-thieno[2,3-a]quinolizine-10-carboxylic acid (2-methoxy-ethyl)-thiophen-2-yl-methyl-amide] | 2500 | 30 to 100
25 | CCN(CCOC)C(=O)c1cc(-c2ccc(OCc3ccccc3)cc2)c(=O)n2ccc3ccsc3c12 [Compound 68, 8-(4-Benzyloxy-phenyl)-7-oxo-7H-thieno[2,3-a]quinolizine-10-carboxylic acid ethyl-(2-methoxy-ethyl)-amide] | 8000 | 25
26 | COCCN(CCOC)C(=O)c1cc(-c2ccc(OC)cc2)c(=O)n2ccc3ccsc3c12 [Compound 145, 8-(4-Methoxy-phenyl)-7-oxo-7H-thieno[2,3-a]quinolizine-10-carboxylic acid bis-(2-methoxy-ethyl)-amide] | 5000 | 100
27 | COCCN(CC1CC1)C(=O)c1cc(-c2ccc(C(C)(C)C)cc2)c(=O)n2ccc3ccsc3c12 [Compound 112, 8-(4-tert-Butyl-phenyl)-7-oxo-7H-thieno[2,3-a]quinolizine-10-carboxylicacid cyclopropylmethyl-(2-methoxy-ethyl)-amide] | 1500 | 100
